Marks after values point to notes of the source that are not given here.
Assays:
[1] = tested on: HBV; test: Secreted HBV DNA in HepAD38 culture supernatant (RT-qPCR); type: cell-based; conditions: HepAD38 cells; for EC50: 6 days, read-out: EC50 (secreted HBV DNA); for Residual HBV DNA level (secreted) relative to DMSO control: 20 μM compound
[2] = CCK-8 cytotoxicity assay in HepAD38 cells; type: cell-based, Human; conditions: human, 6 days
[3] = target: HBV capsid (Hepatitis B virus genotype D subtype ayw, UniProt P03146); test: Intracellular HBV capsid formation; type: cell-based; conditions: HepAD38 or HepG2-HBV1.3 cells, compounds 10 μM, ETV 25 nM, BAY 41-4109 2 μM, 6 days
[4] = tested on: HBV encapsidated pgRNA; test: Encapsidated pgRNA and total HBV RNAs (Northern blot); type: cell-based; conditions: HepAD38 cells, BAY 41-4109 2 μM; for Effect on HBV encapsidated pgRNA: C-18, C-39, C-19 5 μM, ETV 25 nM; for Effect on intracellular total HBV RNAs: C-18, C-39 5 μM
[5] = tested on: HepAD38 cells; test: CCK-8 cytotoxicity assay in HepAD38 cells; type: cell-based, Human
[6] = tested on: HBsAg; test: Secreted HBsAg ELISA; type: cell-based, HBV; conditions: 6 days, ETV 25 nM, BAY 41-4109 2 μM
[7] = target: HBc (Hepatitis B virus genotype D subtype ayw, UniProt P03146); test: Immunofluorescence of HBV core protein in HepAD38 cells; type: cell-based; conditions: 3 days, BAY 41-4109 2 μM; for HBc localisation / aggregation: C-18 and C-39 5 μM; for HBc level by immunofluorescence: C-39 5 μM
[8] = target: Cp149 protein (Hepatitis B virus genotype D subtype ayw, UniProt P03146); test: Cp149 capsid assembly in vitro, transmission electron microscopy; type: biochemical, HBV; conditions: Cp149 5 μM dimer, 300 mM NaCl, 150 mM HEPES pH 7.5; BAY 41-4109 5 μM 3 days, C-39 20 μM 3 and 7 days
[9] = tested on: HBV; test: Secreted HBV DNA in HepG2-HBV1.3 culture supernatant (RT-qPCR); type: cell-based; conditions: Hepatitis B virus, 144 h; HepG2-HBV1.3 cells, 6 days
[10] = CCK-8 cytotoxicity assay in HepG2-HBV1.3 (HepG2) cells; type: cell-based; conditions: human
[11] = tested on: HBeAg; test: Secreted HBeAg ELISA; type: cell-based, HBV; conditions: 6 days
[12] = tested on: HBV 3.5 kb RNA; test: Intracellular HBV 3.5 kb RNA (RT-qPCR); type: cell-based; conditions: 6 days
[13] = tested on: HBV core DNA; test: Intracellular HBV core DNA (qPCR) and replicative intermediates (Southern blot); type: cell-based; conditions: 6 days, qPCR
[14] = tested on: wild-type HBV; test: Drug susceptibility assay, HepG2 transfected with HBV1.1-WT; type: cell-based; conditions: Hepatitis B virus, 144 h; wild-type HBV in HepG2, secreted HBV DNA, 6 days; read-out: viral replication EC50
[15] = tested on: ETV-resistant mutant (rtL180M/S202G/M204V) HBV; test: Drug susceptibility assay, HepG2 transfected with ETV-resistant mutant; type: cell-based; conditions: Hepatitis B virus, HepG2, 144 h, read-out: viral replication EC50
[16] = tested on: HBV; test: HepG2-NTCP de novo HBV infection model (viral markers, cccDNA Taq-Man qPCR); type: cell-based; conditions: HepG2-NTCP cells, 5 μM

Chain of HBV capsid (P03146 whole entry): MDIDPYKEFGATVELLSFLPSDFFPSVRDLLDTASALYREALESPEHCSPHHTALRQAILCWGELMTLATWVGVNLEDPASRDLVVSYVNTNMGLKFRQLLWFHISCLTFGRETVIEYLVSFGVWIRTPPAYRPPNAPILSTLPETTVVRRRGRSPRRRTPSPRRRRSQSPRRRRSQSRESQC
Chain of HBc (P03146 whole entry): as above
Chain of Cp149 protein (P03146 1-149): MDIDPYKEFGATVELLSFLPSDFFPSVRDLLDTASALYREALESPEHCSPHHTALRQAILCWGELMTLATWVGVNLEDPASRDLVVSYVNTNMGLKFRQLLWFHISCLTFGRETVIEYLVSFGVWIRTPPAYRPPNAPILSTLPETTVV

| SMILES | SI (CC50/EC50) [1] | EC50 ([1]; Hepatitis B virus, 144 h) [nM] | CC50 at 6 days [2] [µM] | Effect on intracellular HBV capsid formation at single concentration [3] | Effect on HBV encapsidated pgRNA [4] | Cytotoxicity in words [5] | also measured |
| --- | --- | --- | --- | --- | --- | --- | --- |
| O=C(Nc1ccc(F)c(F)c1)c1cc(S(=O)(=O)N(CCc2ccccc2)Cc2ccccc2)ccc1F [Compound C-19] | 194.1 | 390 ± 130 | 75.3 ± 5.2 | did not affect the capsid formation | slight effects |  |  |
| Cc1nnc2ccc(N3CCCC(C(=O)Nc4ccc(F)c(Cl)c4)C3)nn12 (centres unmarked) [Compound C-4] |  |  |  |  |  |  | Residual HBV DNA level (secreted) relative to DMSO control [1]: 21% |
| Cc1cccc(NC(=O)c2ccc3nnc(SCC(=O)Nc4ccc(F)c(F)c4)n3c2)c1 [Compound C-16] | 56.3 | 1290 ± 350 | 72.4 ± 1.9 | did not affect the capsid formation |  |  |  |
| COc1cccc(-c2noc([C@@H]3CCCN3C(=O)Nc3ccc(F)c(Cl)c3)n2)c1 [Compound C-9] | 23.4 | 1140 ± 230 | 26.6 ± 2 | did not affect the capsid formation |  |  |  |
| O=C(Nc1ccc(F)c(F)c1)c1cc2nccc(-c3cccs3)n2n1 [Compound C-2] |  |  |  |  |  |  | Residual HBV DNA level (secreted) relative to DMSO control [1]: 44% |
| Cc1cc2c(cc1S(=O)(=O)N1CCCC(C(=O)Nc3ccc(F)c(Cl)c3)C1)OCC(=O)N2 (centres unmarked) [Compound C-29] | 14.1 ^a | 1290 ± 10 | 18.2 ± 2.2 |  |  | medium cytotoxicity |  |
| COC(=O)C1=C(C)NC(c2ncc(F)cc2F)=N[C@H]1c1ccc(F)cc1Cl [BAY 41-4109, reference compound] |  |  |  | dramatically inhibited capsid formation | markedly downregulated |  | EC50 [1]: 67 ± 10 nM; Effect on secreted HBsAg ([6]; HepAD38 cells): no impact on HBsAg production; Effect on secreted HBsAg ([6]; HepG2-HBV1.3 cells): no impact on HBsAg production; Effect on intracellular total HBV RNAs [4]: slight decrease; HBc localisation / aggregation [7]: induced punctate HBc aggregation within the nucleus; HBc level by immunofluorescence [7]: significantly decreased the HBc level; Morphology of assembled Cp149 particles (TEM) [8]: large irregular particles |
| Cc1nc(-c2csc(S(=O)(=O)N3CCCC(C(=O)Nc4ccc(F)c(Cl)c4)C3)c2)no1 (centres unmarked) [Compound C-41] | 1542 ^a | 62 ± 13 | 95.6 ± 15.7 |  |  |  |  |
| CCOC(=O)c1c(S(=O)(=O)N2CCCC(C(=O)Nc3ccc(F)c(Cl)c3)C2)c(C)n(C)c1C (centres unmarked) [Compound C-39] |  | 56 ± 13 | > 100 | dramatically inhibited capsid formation | markedly downregulated | no obvious toxicity | HBV DNA secretion and intracellular HBV DNA in combination with ETV vs ETV alone ([1]; 5 nM ETV together with C-39 0-10 μM): further inhibition; EC50 [9]: 75 ± 16 nM; CC50 at 6 days [10]: > 100 µM; Effect on secreted HBeAg ([11]; HepAD38 cells): markedly reduced; Effect on secreted HBeAg ([11]; HepG2-HBV1.3 cells): markedly reduced; Effect on secreted HBsAg ([6]; HepAD38 cells): no impact on HBsAg production; Effect on secreted HBsAg ([6]; HepG2-HBV1.3 cells): no impact on HBsAg production; Effect on intracellular HBV 3.5 kb RNA ([12]; HepAD38 cells): markedly reduced; Effect on intracellular HBV 3.5 kb RNA ([12]; HepG2-HBV1.3 cells): markedly reduced; Effect on intracellular HBV core DNA ([13]; HepAD38 cells): markedly reduced; Effect on intracellular HBV core DNA ([13]; HepG2-HBV1.3 cells): markedly reduced; Effect on intracellular total HBV RNAs [4]: slight decrease; EC50 [14]: 78 nM; EC50 [15]: 84 nM; Effect on cccDNA formation, treatment together with viral inoculum (day 0) [16]: prevented the formation of cccDNA during the early postentry step; Effect on pre-established cccDNA, treatment 4 days after infection (day 4) [16]: minor effect; HBc localisation / aggregation [7]: induced punctate HBc aggregation within the nucleus; HBc level by immunofluorescence [7]: significantly decreased the HBc level; Morphology of assembled Cp149 particles (TEM) [8]: effectively accelerated the formation of capsid-like particles with time |
| O=C(Nc1ccc(F)c(Cl)c1)C1CCCN(S(=O)(=O)c2c[nH]c(C(=O)N3CCCC3)c2)C1 (centres unmarked) [Compound C-40] | 32.3 ^a | 390 ± 10 | 12.6 ± 0.7 |  |  | medium cytotoxicity |  |
